In patent US9283213B2, “Dihydropyridin-2(1H)-one compounds as S-nitrosoglutathione reductase inhibitors and neurokinin-3 receptor antagonists” (N30 Pharmaceuticals, Inc., priority 2010, dated 2016):
pIC50: −log10 of the molar value.

What was measured:
[1] = target: T1, GSNOR (Homo sapiens, UniProt P11766); assay: GSNOR assay (inhibition of GSNOR activity in vitro); format: biochemical; details: 0.240 mM GSNO, 0.300 mM NADH, pH 7.4, 25° C.; read-out: GSNOR inhibitor IC50
T1 construct: made in house; host or cells: E. coli
Description: Various compounds were tested in vitro for their ability to inhibit GSNOR activity.
Pre-cultures were grown from stabs of a GSNOR glycerol stock in 2XYT media containing 100 ug/ml ampicillin after an overnight incubation at 37° C. Cells were then added to fresh 2XYT (4 L) containing ampicillin and grown to an OD (A600) of 0.6-0.9 at 37° C. before induction. GSNOR expression was induced with 0.1% arabinose in an overnight incubation at 20° C.
E. coli cell paste was lysed by nitrogen cavitation and the clarified lysate purified by Ni affinity chromatography on an AKTA FPLC (Amersham Pharmacia). The column was eluted in 20 mM Tris pH 8.0/250 mM NaCl with a 0-500 mM imidazole gradient. […] GSNOR was recovered in the flowthrough fraction and for crystallography is further purified by Q-Sepharose and Heparin flowthrough chromatography in 20 mM Tris pH 8.0, 1 mM DTT, 10 uM ZnSO4.
GSNO and Enzyme/NADH Solutions are made up fresh each day. The Solutions are filtered and allowed to warm to room temperature. GSNO Solution: 100 mM NaPO4 (pH 7.4), 0.480 mM GSNO. 396 μL of GSNO Solution is added to a cuvette followed by 8 μL of test compound in DMSO (or DMSO only for full reaction control) and mixed with the pipette tip. Compounds to be tested are made up at a stock concentration of 10 mM in 100% DMSO. 2 fold serial dilutions are done in 100% DMSO. 8 μL of each dilution are added to an assay so that the final concentration of DMSO in the assay is 1%. The concentrations of compounds tested range from 100 to 0.003 μM. Enzyme/NADH Solution: 100 mM NaPO4 (pH 7.4), 0.600 mM NADH, 1.0 μg/mL GSNO Reductase. 396 μL of the Enzyme/NADH Solution is added to the cuvette to start the reaction. The cuvette is placed in the Cary 3E UV/Visible Spectrophotometer and the change in 340 nm absorbance/min at 25° C. is recorded for 3 minutes. The assays are done in triplicate for each compound concentration. IC50's for each compound are calculated using the standard curve analysis in the Enzyme Kinetics Module of SigmaPlot.
Final assay conditions: 100 mM NaPO4, pH 7.4, 0.240 mM GSNO, 0.300 mM NADH, 0.5 μg/mL GSNO Reductase and 1% DMSO. Final volume: 800 μL/cuvette.

[2] = Mouse pharmacokinetic (PK) study; format: in vivo; details: plasma, male BALB/c mice, PO 10 mg/kg vs IV 2 mg/kg, read-out: oral bioavailability (% F)
Excerpt: The mouse is used to determine the pharmacokinetics of compounds of the invention. This species is widely used to assess the bioavailability of compounds by administering both oral (PO) and intravenous (IV) test articles. Efficacy of the compounds of the invention are compared by assessing plasma exposure in male BALB/c mice either via IV or PO administration at the times of peak activity.
Compounds of the invention are reconstituted in a phosphate buffered saline (PBS)/10% Solutol (HS 15) clear solution resulting in a concentration of 0.2 mg/mL and administered to mice (2 mg/kg) as a single IV dose. Animals dosed via the lateral tail vein. […] The plasma is transferred into labeled polypropylene tubes and frozen at −70° C. until analyzed by LC/MS/MS.
The compounds of the invention are reconstituted in 40% Propylene Glycol/40% Propylene Carbonate/20% of a 5% Sucrose clear solution resulting in a concentration of 2 mg/mL and administered to mice (10 mg/kg) as a single oral dose via gavage. […] The plasma is transferred into labeled polypropylene tubes and frozen at −70° C. until analyzed by LC/MS/MS.
Plasma samples at each timepoint were analyzed using a LC-MS/MS with a lower limit of quantification (LLOQ) of 1 ng/mL. […]
In addition to the above PK parameters, bioavailability (% F) was calculated.

T1 sequence (P11766 whole entry): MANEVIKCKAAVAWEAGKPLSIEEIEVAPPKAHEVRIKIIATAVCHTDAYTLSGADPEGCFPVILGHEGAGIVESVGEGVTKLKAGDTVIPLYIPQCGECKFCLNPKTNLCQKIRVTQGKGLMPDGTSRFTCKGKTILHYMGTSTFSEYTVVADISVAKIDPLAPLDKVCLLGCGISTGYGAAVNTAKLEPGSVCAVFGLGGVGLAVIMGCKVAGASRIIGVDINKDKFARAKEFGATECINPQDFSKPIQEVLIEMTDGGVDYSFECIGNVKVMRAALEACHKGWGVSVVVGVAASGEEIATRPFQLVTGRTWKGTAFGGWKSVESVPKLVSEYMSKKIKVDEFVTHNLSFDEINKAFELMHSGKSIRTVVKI

- pIC50 [1]: > 7.00
- bioavailability [2]: 22%
SMILES: O=C1CC(c2ccc(C(=O)O)c(O)c2)C(c2ccccc2)=C(c2ccccc2)N1 (centres unmarked) [Example 6, 2-hydroxy-4-(2-oxo-5,6-diphenyl-1,2,3,4-tetrahydropyridin-4-yl)benzoic acid]
